This is an account of results in patent US20240294465A1, “NOVEL ANTI-FIBROTIC DRUGS” (HELMHOLTZ ZENTRUM MUNCHEN - DEUTSCHES FORSCHUNGSZENTRUM FUR …, priority 2021, published 2024).

Common to all, as to format: cell-based
One series has as its system PAI-1/SERPINE1. Kind of series: Human precision cut lung slices (PCLS) with fibrotic cocktail: immunoblot of secreted PAI-1. The settings on record: living human PCLS. The protocol:
PCLS were prepared as described before (31, 32). Shortly, PCLS were prepared from tumor-free peri-tumor tissue. The lung tissue was inflated with 3% agarose solution and solidified at 4° C. Tissue blocks were cut in μm thick PCLS using a vibration microtome Hyrax V50 (Zeiss). PCLS were cultured in DMEM F-12 medium and treated with a profibrotic cocktail, as described before (31), or vehicle, as well as with small molecules or vehicles for 7 days. After culturing and treatments, supernatants were harvested. PCLS were […] washed in PBS and protein was extracted as previously described (33). Briefly, PCLS were pooled in an Eppendorf tube and lysed in 500 μl ice-cold RIPA buffer (50 mM Tris-CI pH 7.4, 150 mM NaCl, 1% NP40, 0.25% Na-deoxycholate) containing 1× Roche complete mini protease inhibitor cocktail (Roche, Cat. #11697498001). After an incubation of 2 hours rotating at 4° C., the lung slices were removed from the lysates and the protein content was measured.
Cells were scraped off the plastic dish directly into 200 μl ice-cold RIPA buffer containing 1× Roche complete mini protease inhibitor cocktail. […] CXCL/IL-8 concentrations were determined using Human IL-8/CXCL8 DuoSet ELISA (DY208-05) according to the manufacturer's protocol.

For series [1], the system named is cellular contractility of phLFs. Kind of series: 3D collagen gel contractility assay of primary human lung fibroblasts. The settings on record: n=3 patient phLFs. The protocol: In a 96-well imaging plate 50 μl 3D collagen gels were casted per well as described before (30), and 20.000 phLFs per well were seeded on top. Cells were treated with 1 ng/mL TGFβ1 and/or example 84. After 72 h cells were fixed with 4% paraformaldehyde. Collagen gels were imaged using an Axiolmager2 (Zeiss) and the gel diameter was determined using Zen Blue v2.5 (Zeiss).

Another series has as its system phLFs. Kind of series: Cytotoxicity assays (MTT, live/dead calcein, caspase 3/7). The settings on record: confluent phLFs+TGFβ1. From the text: Viability/Cytotoxicity Assay Kit for Animal Live and Dead Cells was obtained from Biotium, Cat. No. 3002). CellEvent™ Caspase 3/7 Green Detection Reagent was acquired from Invitrogen, Cat. No. C10423. For MTT-assays, Thiazolyl Blue Tetrazolium was bought from SigmaAldrich (M5655-1G). All these kits and assays were used according to the manufacturer's instructions.

As to `CCCCOc1ccccc1NC(=O)/C=C/c1ccc(OC)c(OC)c1` [Example 84, (E)-N-(2-butoxyphenyl)-3-(3,4-dimethoxyphenyl)acrylamide], the “secreted PAI-1/SERPINE1” value in the series on PAI-1/SERPINE1 was “diminution of secreted pro-fibrotic PAI-1/SERPINE1”. Further, the “cellular contractility (collagen gel)” value in series [1] is listed as “significant inhibition of cellular contractility”. Besides, the “viability (calcein staining)” value in the series with phLFs was “proving viability”.
